Tests used:
[1] = system: solid tumor subjects; experiment: Clinical study CMBG453X2101, MBG453 single agent; format: in vivo, human; settings: any dose up to 1200 mg Q2W or Q4W
Description: (§1) The MBG453 single agent RD has been determined as 800 mg Q4W in solid tumor subjects primarily based on PK and PKPD modeling of target (TIM-3) occupancy. MBG453 at the dose level of 800 mg Q4W was predicted to give sustained target occupancy of 90% in tumor in >90% of subjects. […] MBG453 single agent is also being evaluated in AML/MDS subjects in the CPDR001X2105 study with Q4W and Q2W regimens.

[2] = system: AML/MDS subjects; experiment: Clinical study CPDR001X2105, MBG453 single agent; format: in vivo, human; settings: 400 mg Q2W and 800 mg Q4W
Description: as §1
The RD in AML/MDS has not yet been determined, however it is not expected to be different from solid tumors, based on preliminary PK and safety data.

[3] = system: p53; settings: preclinical cell and in vivo models; cited from earlier work
[4] = system: R/R AML subjects; experiment: Clinical study CHDM201X2101, single agent HDM201; format: in vivo, human
Description: HDM201 is a novel investigational agent with promising single-agent activity in AML patients. Study CHDM201X2101 investigated several dose regimens of single agent HDM201 in R/R AML subjects. CR/CRi rate of 24% was reported in subjects with R/R AML who received oral HDM201 at a dose of 45 mg from D1 to D7 every 4 weeks (Q4W) (Regimen 2C), which was the dose assessed as recommended dose for expansion (RDE).
The starting dose and regimen selection for HDM201 in dose escalation is based on the previous Phase I dose escalation and expansion study of HDM201 as a single-agent in subjects with R/R AML ([HDM201X2101]). In this Phase I study, HDM201 was investigated in subjects with solid tumors and hematological malignancies. A total of 27 subjects with hematological malignancies (26 AML and one acute lymphoblastic leukemia (ALL)) have been enrolled across various regimens. […] According to HDM201X2101, Regimen 2C was determined to be the recommended Phase 2 dose (RP2D) for further development of HDM201 as a single-agent.
With this regimen, the RD has been determined as 45 mg HDM201 in hematological tumors in the CHDM201X2101 study. […] Proceedings of the American Association for Cancer Research Annual Meeting 2017; 2017 Apr. 1-5; Washington, DC. Philadelphia (PA): AACR; Cancer Res 2017; 77(13 Suppl):Abstract nr CT154. doi:10.1158/1538-7445.AM2017-CT154).

[5] = Population PK/PD model parameter estimates (NLME, Monolix) from the CHDM201X2101 dataset; parameters: species or system human; settings: method=FIXED
Description: For model building the PK/PD dataset of CHDM201X2101 were used and an NLME estimation (Monolix 4.3.2) performed. The model structure and the parameter estimates are provided below. This provided inputs for R/shiny. The m/xR package were used for simulation of longitudinal data from the MLXTRAN model.

[6] = system: solid and hematological tumors; settings: versus original day 1 to day 7 regimen of a 28-day cycle; cited from earlier work
[7] = R/R AML subjects, single agent HDM201
[8] = subjects treated at RDE (Regimen 2C: 45 mg D1 to D7 Q4W)

Molecule	safety signal [1]	tolerability [2]	effect on p53 function [3]	most common grade 3/4 AE reported as suspected to study treatment ([4]; 27 subjects with hematological malignancies across various regimens)	CR/CRi rate ([4]; R/R AML subjects, oral 45 mg D1 to D7 Q4W (Regimen 2C)) [%]	duration of responses [4, 7]	time at which response was seen [4, 7]	gastro-intestinal AEs, grade [4, 8]	tumor lysis syndrome (TLS) Grade 3 or 4 [4, 8]	pop_Cl [5]	pop_V [5]	pop_ka [5]	anti-tumor activity when administration is shortened to 5 consecutive days [6]
MBG453: TIM-3 inhibitor MBG453 (Novartis), given by i.v. infusion	No significant safety signal	well tolerated	–	–	–	–	–	–	–	–	–	–	–
COc1ncc(-c2nc3c(n2C(C)C)[C@H](c2ccc(Cl)cc2)N(c2cc(Cl)cn(C)c2=O)C3=O)c(OC)n1 [HDM201, (S)-5-(5-Chloro-1-methyl-2-oxo-1,2-dihydro-pyridin-3-yl)-6-(4-chloro-phenyl)-2-(2,4-dimethoxy-pyrimidin-5-yl)-1-isopropyl-5,6-dihydro-1H-pyrrolo[3,4-d]imidazol-4-one]	–	–	restore p53 function	thrombocytopenia, neutropenia, anemia and Tumor Lysis Syndrome (TLS)	24	up to 152 days	within the first two cycles	only low grade	about 10%	pop_Cl = 6.18 [method=FIXED],	pop_V = 119 [method=FIXED],	pop_ka = 0.489 [method=FIXED],	relevant anti-tumor activity

Source: patent publication US20250041296A1, “NOVEL DOSING REGIMENS FOR MDM2 INHIBITORS” (NOVARTIS AG, priority 2018, published 2025)
